In patent US7598245B2 (Vertex Pharmaceuticals Incorporated, priority 2003, dated 2009) one finds Ki data, which are given here for five compounds.

Type in all cases: biochemical
One assay deals with T1, JAK-3 (Homo sapiens, UniProt P52333).
T1 sequence (P52333 1-1124): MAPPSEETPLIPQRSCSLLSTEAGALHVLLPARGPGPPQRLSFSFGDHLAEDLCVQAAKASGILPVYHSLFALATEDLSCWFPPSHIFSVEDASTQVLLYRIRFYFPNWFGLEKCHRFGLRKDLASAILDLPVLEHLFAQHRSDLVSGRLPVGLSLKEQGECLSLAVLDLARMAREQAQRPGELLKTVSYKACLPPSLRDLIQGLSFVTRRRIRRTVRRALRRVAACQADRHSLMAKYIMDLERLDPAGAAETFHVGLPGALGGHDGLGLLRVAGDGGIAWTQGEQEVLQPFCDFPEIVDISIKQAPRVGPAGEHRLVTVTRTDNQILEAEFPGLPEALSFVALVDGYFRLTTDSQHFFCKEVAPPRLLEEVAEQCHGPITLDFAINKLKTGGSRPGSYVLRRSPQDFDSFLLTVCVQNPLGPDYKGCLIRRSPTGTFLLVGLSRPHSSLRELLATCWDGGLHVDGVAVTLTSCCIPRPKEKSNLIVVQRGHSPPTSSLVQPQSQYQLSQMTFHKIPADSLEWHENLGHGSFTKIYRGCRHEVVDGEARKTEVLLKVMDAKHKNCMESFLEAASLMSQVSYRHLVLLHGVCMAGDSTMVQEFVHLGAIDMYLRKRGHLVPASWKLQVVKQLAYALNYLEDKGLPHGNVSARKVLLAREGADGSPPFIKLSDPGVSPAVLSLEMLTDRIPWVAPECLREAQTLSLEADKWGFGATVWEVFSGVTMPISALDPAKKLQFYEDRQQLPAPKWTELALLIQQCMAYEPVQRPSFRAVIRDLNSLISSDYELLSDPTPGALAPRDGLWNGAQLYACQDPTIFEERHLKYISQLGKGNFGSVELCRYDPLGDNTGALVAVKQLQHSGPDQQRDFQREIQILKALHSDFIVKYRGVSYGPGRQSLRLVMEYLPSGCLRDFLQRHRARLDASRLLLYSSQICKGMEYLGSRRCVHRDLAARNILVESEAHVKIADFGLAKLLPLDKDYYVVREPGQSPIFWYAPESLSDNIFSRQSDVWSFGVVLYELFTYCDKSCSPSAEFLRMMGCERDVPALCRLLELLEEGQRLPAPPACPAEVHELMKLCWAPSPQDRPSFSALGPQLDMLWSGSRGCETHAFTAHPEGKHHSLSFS
The assay can be described thus: JAK3 inhibition assay (ELISA, Poly (Glu, Ala, Tyr) coated plates). Particulars: 2 μM ATP. How it is done: Compound inhibition of JAK was assayed by the method described by G. R. Brown, et al, Bioorg. Med. Chem. Lett. 2000, vol. 10, pp 575-579 in the following manner. Into Maxisorb plates, previously coated at 4° C. with Poly (Glu, Ala, Tyr) 6:3:1 then washed with phosphate buffered saline 0.05% and Tween-(PBST), was added 2 μM ATP, 5 mM MgCl2, and a solution of compound in DMSO. The reaction was started with JAK enzyme and the plates incubated for 60 minutes at 30° C. The plates were then washed with PBST, 100 μL HRP-Conjugated 4G10 antibody was added, and the plate incubated for 90 minutes at 30° C. The plate was again washed with PBST, 100 μL TMB solution is added, and the plates were incubated for another 30 minutes at 30° C. Sulfuric acid (100 μL of 1M) was added to stop the reaction and the plate is read at 450 nm to obtain the optical densities for analysis to determine Ki values.
(In general: ELISA stands for enzyme-linked immunosorbent assay.)

A further assay deals with T2, human Src kinase (Homo sapiens, UniProt P12931).
T2 construct: 25 nM of recombinant human Src kinase
The assay can be described thus: Src inhibition assay B: spectrophotometric (uv-vis) coupled enzyme assay. Particulars: 100 μM ATP. The method, then:
The compounds are evaluated as inhibitors of human Src kinase using either a radioactivity-based assay or spectrophotometric assay.
Src Inhibition Assay B: Spectrophotometric Assay
The ADP produced from ATP by the human recombinant Src kinase-catalyzed phosphorylation of poly Glu-Tyr substrate is quantified using a coupled enzyme assay [Fox et al. Protein Sci. 1998, 7, 2249]. In this assay one molecule of NADH is oxidised to NAD for every molecule of ADP produced in the kinase reaction. The disappearance of NADH is conveniently followed at 340 nm.
The following are the final concentrations of the assay components: 0.025 M HEPES (pH 7.6), 10 mM MgCl2, 2 mM DTT, 0.25 mg/ml poly Glu-Tyr, and 25 nM of recombinant human Src kinase. Final concentrations of the components of the coupled enzyme system are 2.5 mM phosphoenolpyruvate, 200 μM NADH, 30 μg/ml pyruvate kinase and 10 μg/ml lactate dehydrogenase.
In a typical assay, all the reaction components with the exception of ATP are pre-mixed and aliquoted into assay plate wells. Inhibitors dissolved in DMSO are added to the wells to give a final DMSO concentration of 2.5%. The assay plate is incubated at 30° C. for 10 min before initiating the reaction with 100 μM ATP. The absorbance change at 340 nm with time, the rate of the reaction, is monitored on a molecular devices plate reader. The data of rate as a function of the inhibitor concentration is fitted to competitive inhibition kinetics model to get the Ki for the compound.

Another assay deals with T3, PDK-1 (Homo sapiens, UniProt O15530).
T3 sequence (O15530 1-556): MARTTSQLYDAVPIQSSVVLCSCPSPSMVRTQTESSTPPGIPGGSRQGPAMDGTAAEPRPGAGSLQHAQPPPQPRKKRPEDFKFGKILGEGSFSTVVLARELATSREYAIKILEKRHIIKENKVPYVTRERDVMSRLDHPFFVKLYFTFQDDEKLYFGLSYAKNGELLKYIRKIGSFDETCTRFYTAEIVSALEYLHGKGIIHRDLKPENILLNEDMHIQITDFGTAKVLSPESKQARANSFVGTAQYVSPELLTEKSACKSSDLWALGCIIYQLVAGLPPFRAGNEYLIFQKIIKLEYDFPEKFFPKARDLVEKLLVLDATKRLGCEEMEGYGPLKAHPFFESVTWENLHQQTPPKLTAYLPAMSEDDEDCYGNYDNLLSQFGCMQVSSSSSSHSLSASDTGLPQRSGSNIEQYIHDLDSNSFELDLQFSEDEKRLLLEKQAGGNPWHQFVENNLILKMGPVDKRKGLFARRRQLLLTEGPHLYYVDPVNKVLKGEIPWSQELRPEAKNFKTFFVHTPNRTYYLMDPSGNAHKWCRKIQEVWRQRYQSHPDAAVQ
In words: PDK-1 inhibition, radioactive-phosphate incorporation assay. Particulars: 40 μM ATP. How it is done:
Compounds were screened for their ability to inhibit PDK-1 using a radioactive-phosphate incorporation assay (Pitt and Lee, J. Biomol. Screen., (1996) 1, 47). Assays were carried out in a mixture of 100 mM HEPES (pH 7.5), 10 mM MgCl2, 25 mM NaCl, 2 mM DTT. Final substrate concentrations in the assay were 40 μM ATP (Sigma Chemicals) and 65 μM peptide (PDKtide, Upstate, Lake Placid, N.Y.). Assays were carried out at 30° C. and 25 nM PDK-1 in the presence of ˜27.5 nCi/μL of [γ-^32P]ATP (Amersham Pharmacia Biotech, Amersham, UK). An assay stock buffer solution was prepared containing all of the reagents listed above, with the exception of ATP, and the test compound of interest. 15 μl of the stock solution was placed in a 96 well plate followed by addition of 1 μl of 0.5 mM DMSO stock containing the test compound (final compound concentration 25 μM, final DMSO concentration […]). The plate was preincubated for about 10 minutes at 30° C. and the reaction initiated by addition of 4 μl ATP (final concentration 40 μM).
The reaction was stopped after 10 minutes by the addition of 100 μL 100 mM phosphoric acid, 0.01% Tween-20. A phosphocellulose 96 well plate (Millipore, Cat no. MAPHNOB50) was pretreated with 100 μL 100 mM phosphoric acid, 0.01% Tween-20 prior to the addition of the reaction mixture (100 μL). The spots were left to soak for at least 5 minutes, prior to wash steps (4×200 μL 100 mM phosphoric acid, 0.01% Tween-20). After drying, 20 μL Optiphase ‘SuperMix’ liquid scintillation cocktail (Perkin Elmer) was added to the well prior to scintillation counting (1450 Microbeta Liquid Scintillation Counter, Wallac).

The target of a further assay is T4, Aurora-2 (Homo sapiens, UniProt O14965).
T4 construct: addition of 10 μL of Aurora-2 stock solution to give a final concentration of 70 nM
T4 sequence (O14965 1-403): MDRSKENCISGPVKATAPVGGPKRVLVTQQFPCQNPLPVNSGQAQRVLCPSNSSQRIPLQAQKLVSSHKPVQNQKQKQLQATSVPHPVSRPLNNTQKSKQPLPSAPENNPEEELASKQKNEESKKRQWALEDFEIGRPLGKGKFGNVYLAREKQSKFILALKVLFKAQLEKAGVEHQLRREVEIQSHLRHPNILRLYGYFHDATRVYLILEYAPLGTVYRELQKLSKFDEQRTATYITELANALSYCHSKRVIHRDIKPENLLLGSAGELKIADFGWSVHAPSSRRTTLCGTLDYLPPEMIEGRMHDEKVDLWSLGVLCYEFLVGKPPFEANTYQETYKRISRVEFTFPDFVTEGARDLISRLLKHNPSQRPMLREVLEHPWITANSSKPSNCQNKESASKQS
The assay can be described thus: Inhibition of AUR-2, coupled enzyme assay. How it is done:
Compounds are screened in the following manner for their ability to inhibit Aurora-2 using a standard coupled enzyme assay (Fox et al (1998) Protein Sci 7, 2249). To an assay stock buffer solution containing 0.1M HEPES 7.5, 10 mM MgCl2, 1 mM DTT, 25 mM NaCl, 2.5 mM phosphoenolpyruvate, […], 30 mg/ml pyruvate kinase, 10 mg/ml lactate dehydrogenase, 40 mM ATP, and 800 μM peptide (LRRASLG, American Peptide, Sunnyvale, Calif.) is added a DMSO solution of a compound of the present invention to a final concentration of 30 μM. The resulting mixture is incubated at 30° C. for 10 min. The reaction was initiated by the addition of 10 μL of Aurora-2 stock solution to give a final concentration of 70 nM in the assay. The rates of reaction are obtained by monitoring absorbance at 340 nm over a 5 minute read time at 30° C. using a BioRad Ultramark plate reader (Hercules, Calif.). The Ki values are determined from the rate data as a function of inhibitor concentration.

T2 sequence (P12931 whole entry): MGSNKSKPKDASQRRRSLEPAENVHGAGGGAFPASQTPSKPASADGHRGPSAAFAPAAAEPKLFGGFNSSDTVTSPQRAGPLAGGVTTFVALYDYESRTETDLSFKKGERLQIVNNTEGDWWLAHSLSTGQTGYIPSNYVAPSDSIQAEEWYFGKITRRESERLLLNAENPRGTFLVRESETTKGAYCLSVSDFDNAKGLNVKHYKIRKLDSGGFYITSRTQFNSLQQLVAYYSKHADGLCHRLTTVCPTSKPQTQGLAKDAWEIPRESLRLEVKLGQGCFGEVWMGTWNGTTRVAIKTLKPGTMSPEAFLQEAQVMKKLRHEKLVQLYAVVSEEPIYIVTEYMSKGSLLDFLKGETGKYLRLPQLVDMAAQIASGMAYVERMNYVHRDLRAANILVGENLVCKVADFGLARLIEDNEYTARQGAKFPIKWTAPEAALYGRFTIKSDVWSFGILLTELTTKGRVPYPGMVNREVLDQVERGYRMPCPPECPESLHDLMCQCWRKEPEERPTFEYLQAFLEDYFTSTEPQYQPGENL

Turning to `CN(c1cc(-n2cnc(Nc3ccccc3)n2)ccn1)C1CCCCC1` [Compound I-133], the Ki at JAK-3 and at human Src kinase was above 1 µM each time.

On to `CCCN(CC1CC1)c1cc(-n2cnc(Nc3ccccc3)n2)ccn1` [Compound I-125, cyclopropylmethyl-[4-(3-phenylamino-[1,2,4]triazol-1-yl)-pyridin-2-yl]-propyl-amine], for which the Ki on human Src kinase was above 1 µM. As to `NS(=O)(=O)c1ccc(Nc2ncn(-c3ccnc(N[C@H]4CCCNC4)c3)n2)cc1` [Compound I-104, 3-(S)-{4-[3-(4-Sulfamoyl-phenylamino)-[1,2,4]triazol-1-yl]-pyridin-2-ylamino}-piperidine], the Ki at PDK-1 was below 1 µM.

Turning to `c1ccc(Nc2ncn(-c3cc(N[C@H]4CCCNC4)ncn3)n2)cc1` [Compound I-103, [6-(3-Phenylamino-[1,2,4]triazol-1-yl)-pyrimidin-4-yl]-piperidin-3-yl-amine], the Ki at PDK-1 is below 1 µM; at Aurora-2, 0.1 to 1 µM; at human Src kinase, below 0.5 µM. At human Src kinase, `CC1CCCCN1c1cc(-n2cnc(Nc3ccccc3)n2)ccn1` (centres unmarked) [Compound I-126, [1-(2-methyl-3,4,5,6-tetrahydro-2H-[1,2′]bipyridinyl-4′-yl)-1H-[1,2,4]triazol-3-yl]-phenyl-amine] gave a Ki above 1 µM.

The term Ki denotes the equilibrium dissociation constant of an inhibitor or competing ligand from its target.
